Results on 9 compounds are retold here after ChEMBL document CHEMBL5108027, “An unanticipated discovery of novel naphthalimidopropanediols as potential broad-spectrum antibacterial members” (Eur J Med Chem, 2022).

≈ marks a conversion by molar mass, not a printed value.

Holding throughout (assay type): functional
The test system of assay [1] is Staphylococcus aureus. The experiment in a line: Antibacterial activity against methicillin-resistant Staphylococcus aureus N315 measured by Muller-Hinton broth based microdilution assay.
For assay [2], the system named is Enterococcus faecalis. In words: Antibacterial activity against Enterococcus faecalis measured by Muller-Hinton broth based microdilution assay.
Assay [3] relates to Staphylococcus aureus. The experiment in a line: Antibacterial activity against Staphylococcus aureus measured by Muller-Hinton broth based microdilution assay.
The subject of assay [4] is Staphylococcus aureus. In words: Antibacterial activity against Staphylococcus aureus ATCC 25923 measured by Muller-Hinton broth based microdilution assay.
The subject of assay [5] is Staphylococcus aureus. In words: Antibacterial activity against Staphylococcus aureus ATCC 29213 measured by Muller-Hinton broth based microdilution assay.
Assay [6] has as its system Klebsiella pneumoniae. The experiment in a line: Antibacterial activity against Klebsiella pneumoniae measured by Muller-Hinton broth based microdilution assay.
In assay [7] the test system is Escherichia coli. In words: Antibacterial activity against Escherichia coli measured by Muller-Hinton broth based microdilution assay.
In assay [8] the test system is Pseudomonas aeruginosa. In words: Antibacterial activity against Pseudomonas aeruginosa measured by Muller-Hinton broth based microdilution assay.
Assay [9] concerns Acinetobacter baumannii. In words: Antibacterial activity against Acinetobacter baumannii measured by Muller-Hinton broth based microdilution assay.
Assay [10] relates to Pseudomonas aeruginosa. In words: Antibacterial activity against Pseudomonas aeruginosa ATCC 27853 measured by Muller-Hinton broth based microdilution assay.
Assay [11] deals with Escherichia coli. In words: Antibacterial activity against Escherichia coli ATCC 25922 measured by Muller-Hinton broth based microdilution assay.

Consider `O=C1c2cccc3c(N/N=C/c4cccs4)ccc(c23)C(=O)N1C(CO)CO`, for which the minimum inhibitory concentration (MIC) worked out at 4 µg/mL (≈ 10.1 µM) in assay [1]; 16 µg/mL (≈ 40.5 µM) in assay [2]; 64 µg/mL (≈ 162 µM) in assay [3]; 64 µg/mL (≈ 162 µM) in assay [4]; 8 µg/mL (≈ 20.2 µM) in assay [5]; 4 µg/mL (≈ 10.1 µM) in assay [6]. The minimum inhibitory concentration (MIC) turned out to be 32 µg/mL (≈ 80.9 µM) in assay [7]; 64 µg/mL (≈ 162 µM) in assay [8]; 64 µg/mL (≈ 162 µM) in assay [9]; 32 µg/mL (≈ 80.9 µM) in assay [10]; 32 µg/mL (≈ 80.9 µM) in [11].
In the case of `CCCCc1nc(Cl)c(/C=N/Nc2ccc3c4c(cccc24)C(=O)N(C(CO)CO)C3=O)[nH]1`, the MIC in assay [1] was 64 µg/mL (≈ 136 µM); in assay [2], 32 µg/mL (≈ 68.1 µM); in assay [3] it was 32 µg/mL (≈ 68.1 µM); in assay [4], 64 µg/mL (≈ 136 µM); in assay [5], 32 µg/mL (≈ 68.1 µM); in [6], 8 µg/mL (≈ 17 µM). Also, the MIC in [7] came out at 16 µg/mL (≈ 34 µM); in assay [8], 64 µg/mL (≈ 136 µM); in assay [9] it was 64 µg/mL (≈ 136 µM); in assay [10] it was 8 µg/mL (≈ 17 µM); in assay [11], 32 µg/mL (≈ 68.1 µM).
In the case of `O=C1c2cccc3c(N/N=C/c4c[nH]c5ccccc45)ccc(c23)C(=O)N1C(CO)CO`, the minimum inhibitory concentration (MIC) was 4 µg/mL (≈ 9.34 µM) in [1]; 64 µg/mL (≈ 149 µM) in assay [2]; 8 µg/mL (≈ 18.7 µM) in [3]; 8 µg/mL (≈ 18.7 µM) in assay [4]; 2 µg/mL (≈ 4.67 µM) in assay [5]; 64 µg/mL (≈ 149 µM) in assay [6]. Also, the minimum inhibitory concentration (MIC) in assay [7] was 64 µg/mL (≈ 149 µM); in [8] it was 4 µg/mL (≈ 9.34 µM); in assay [9], 64 µg/mL (≈ 149 µM); in [10] it was 32 µg/mL (≈ 74.7 µM); in [11], 64 µg/mL (≈ 149 µM).
Turning to `O=C1c2cccc3c(N/N=C/c4cccc(O)c4)ccc(c23)C(=O)N1C(CO)CO`, the minimum inhibitory concentration (MIC) in assay [1] amounted to 128 µg/mL (≈ 316 µM); in assay [2], 128 µg/mL (≈ 316 µM); in assay [3] it was 256 µg/mL (≈ 631 µM); in assay [4] it was 32 µg/mL (≈ 78.9 µM); in assay [5] it was 256 µg/mL (≈ 631 µM); in [6], 128 µg/mL (≈ 316 µM). The MIC in assay [7], in assay [8], in [9], in [10] and in [11] was 256 µg/mL (≈ 631 µM) in each case.
As for `O=C1c2cccc3c(N/N=C/c4ccccc4F)ccc(c23)C(=O)N1C(CO)CO`, the MIC was found to be 32 µg/mL (≈ 78.5 µM) in assay [1]; 2 µg/mL (≈ 4.91 µM) in [2]; 8 µg/mL (≈ 19.6 µM) in assay [3]; 64 µg/mL (≈ 157 µM) in [4]; 16 µg/mL (≈ 39.3 µM) in [5]; 32 µg/mL (≈ 78.5 µM) in [6]. The MIC was 32 µg/mL (≈ 78.5 µM) in assay [7]; 32 µg/mL (≈ 78.5 µM) in assay [8]; 64 µg/mL (≈ 157 µM) in assay [9]; 8 µg/mL (≈ 19.6 µM) in [10]; 32 µg/mL (≈ 78.5 µM) in [11].
With `CCn1cc(/C=N/Nc2ccc3c4c(cccc24)C(=O)N(C(CO)CO)C3=O)c2ccccc21`, the MIC in assay [1] worked out at 64 µg/mL (≈ 140 µM); in assay [2] it was 32 µg/mL (≈ 70.1 µM); in assay [3], 8 µg/mL (≈ 17.5 µM); in [4], 16 µg/mL (≈ 35 µM); in [5], 32 µg/mL (≈ 70.1 µM); in assay [6], 8 µg/mL (≈ 17.5 µM). Also, the MIC in assay [7] is 16 µg/mL (≈ 35 µM); in assay [8], 16 µg/mL (≈ 35 µM); in assay [9] it was 64 µg/mL (≈ 140 µM); in [10], 32 µg/mL (≈ 70.1 µM); in assay [11], 32 µg/mL (≈ 70.1 µM).
Turning to `Cc1ccc(/C=N/Nc2ccc3c4c(cccc24)C(=O)N(C(CO)CO)C3=O)cc1`, the MIC turned out to be 16 µg/mL (≈ 39.7 µM) in assay [1]; 64 µg/mL (≈ 159 µM) in assay [2]; 0.5 µg/mL (≈ 1.24 µM) in assay [3]; 32 µg/mL (≈ 79.3 µM) in [4]; 4 µg/mL (≈ 9.91 µM) in [5]; 8 µg/mL (≈ 19.8 µM) in assay [6]. The MIC in assay [7] was 64 µg/mL (≈ 159 µM); in assay [8], 64 µg/mL (≈ 159 µM); in assay [9], 64 µg/mL (≈ 159 µM); in assay [10], 1 µg/mL (≈ 2.48 µM); in assay [11] it was 32 µg/mL (≈ 79.3 µM).
Regarding `O=C1c2cccc3c(N/N=C/c4ccc(F)cc4)ccc(c23)C(=O)N1C(CO)CO`, the minimum inhibitory concentration (MIC) was determined as 64 µg/mL (≈ 157 µM) in [1]; 64 µg/mL (≈ 157 µM) in [2]; 64 µg/mL (≈ 157 µM) in [3]; 32 µg/mL (≈ 78.5 µM) in assay [4]; 4 µg/mL (≈ 9.82 µM) in [5]; 32 µg/mL (≈ 78.5 µM) in assay [6]. The minimum inhibitory concentration (MIC) worked out at 64 µg/mL (≈ 157 µM) in assay [7]; 8 µg/mL (≈ 19.6 µM) in [8]; 32 µg/mL (≈ 78.5 µM) in assay [9]; 32 µg/mL (≈ 78.5 µM) in [10]; 64 µg/mL (≈ 157 µM) in assay [11].
As to `O=C1c2cccc3c(N/N=C/c4nccs4)ccc(c23)C(=O)N1C(CO)CO`, the MIC in assay [1] came to 32 µg/mL (≈ 80.7 µM); in assay [2], 32 µg/mL (≈ 80.7 µM); in [3] it was 64 µg/mL (≈ 161 µM); in assay [4], 16 µg/mL (≈ 40.4 µM); in assay [5] it was 32 µg/mL (≈ 80.7 µM); in [6], 64 µg/mL (≈ 161 µM). Also, the MIC in [7] is 32 µg/mL (≈ 80.7 µM); in assay [8], 32 µg/mL (≈ 80.7 µM); in [9], 32 µg/mL (≈ 80.7 µM); in assay [10] it was 16 µg/mL (≈ 40.4 µM); in assay [11], 32 µg/mL (≈ 80.7 µM).
